Patent US5753661A, “Fused benzo compounds containing a nitrogen heterocycle for the treatment of central nervous system disorders” (priority 1992, dated 1998)

Columns and labels:
5-HT1A receptor [1] = molecular target: T1, 5-HT1A receptor (Rattus norvegicus, UniProt P19327); experiment: Generalization to the discriminative stimulus properties induced by 8-OH-DPAT in rats (8-OH-DPAT cue, agonism); type: in vivo, rat (male Wistar); parameters: from tissue; host or cells: living male Wistar rat (in vivo, endogenous receptor); conditions: rat, sc; usually 30 or 45 min before test
T1 sequence (P19327 1-422): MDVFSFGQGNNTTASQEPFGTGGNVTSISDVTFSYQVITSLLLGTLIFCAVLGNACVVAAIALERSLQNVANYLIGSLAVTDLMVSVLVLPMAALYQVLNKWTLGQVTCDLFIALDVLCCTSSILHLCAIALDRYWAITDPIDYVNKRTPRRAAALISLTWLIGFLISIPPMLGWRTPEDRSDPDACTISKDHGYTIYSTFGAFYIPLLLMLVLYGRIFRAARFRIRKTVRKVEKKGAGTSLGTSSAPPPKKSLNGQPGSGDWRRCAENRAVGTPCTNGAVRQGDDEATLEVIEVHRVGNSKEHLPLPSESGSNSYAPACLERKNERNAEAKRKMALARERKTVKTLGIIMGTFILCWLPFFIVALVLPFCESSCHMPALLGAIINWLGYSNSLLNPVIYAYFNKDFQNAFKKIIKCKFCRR
Excerpt: Generalization to the Discriminative Stimulus Properties Induced by 8-OH-DPAT in Rats
This test is used to determine the 5-HT1A receptor agonistic effect of a test compound in vivo. A related method is described by Tricklebank, M. D., supra; Amt, J. Pharmacology & Toxicology, 1989, 64, 165.
The per cent drug responce obtained for each dose of test compound is used to calculate ED50 values by log-probit analysis.

5-HT1A receptor [2] = molecular target: T1, 5-HT1A receptor; experiment: Inhibition of 3H-8-OH-DPAT binding to serotonin 5-HT1A receptors in rat brain in vitro; parameters: 5-HT1A receptors in membranes from rat brain minus cerebellum; from tissue; host or cells: rat brain minus cerebellum, membranes; conditions: 3H-8-OH-DPAT 1 nM; membranes from rat brain minus cerebellum; read-out: IC50, 3H 8-OH-DPAT binding
Method: Inhibition of ^3 H-8-OH-DPAT Binding to Serotonin 5-HT1A Receptors in Rat Brain in vitro.
By this method the inhibition by drugs of the binding of the 5-HT1A agonist 3H-8-OH-DPAT (1 nM) to 5-HT1A receptors in membranes from rat brain minus cerebellum is determined in vitro . Accordingly, this is a test for affinity for the 5-HT1A receptor. The assay was performed as described by Hyttel et al., Drug Dev. Res. 1988, 15, 389-404.

5-HT1A receptor [3] = molecular target: T1, 5-HT1A receptor; experiment: Inhibition of 5-MeO-DMT-induced 5-HT syndrome in rats; type: in vivo, rat (male Wistar); parameters: Male Wistar rats (Mol:Wist) weighing 170-240 g are used; from tissue; host or cells: living male Wistar rat (Mol:Wist) (in vivo, endogenous receptor); conditions: sc, 5-MeO-DMT 5 mg/kg s.c., inhibition of piano playing
Excerpt: Inhibition of 5-MeO-DMT-Induced 5-HT Syndrome in Rats
The so-called 5-HT syndrome is a characteristic pattern of behaviours which are induced by 5-HT agonists with effects on 5-HT, possibly 5-HT1A receptors (Smith, L. M. and Peroutka, S. J., Pharmacol. Biochem. & Behaviour, 1986, 24, 1513; Tricklebank, M. et al, Eur. J. Pharmacol. 1985, 117, 15). This test is a test for determining the antagonist effects of a test compound on 5-HT1A receptors in vivo by measuring the ability to inhibit 5-MeO-DMT induced 5-HT syndrome.
Male Wistar rats (Mol:Wist) weighing 170-240 g are used. Test substance is injected s.c. before 5-MeO-DMT 5 mg/kg, s.c. Four rats are used for each dose. A control group pretreated with saline is included each test day. 10, 15 and 20 min later the rats are observed for presence of serotonin (5-HT) syndrome. The following symptoms are recorded: 1) forepaw treading ("piano playing"), 2) head weaving and 3) hindleg abduction. Furthermore, flat motility is scored. Each part of the syndrome is scored as follows: marked effect (score 2), weak syndrome (score 1) and no effect (score 0). The scores of the three observation periods are added. Thus the maximum obtainable score for four rats is 24. The effect of the test substance is expressed as percent inhibition relative to the control group.
The percent inhibition of the piano playing syndrome is used as the response and ED50 value are calculated by log-probit analysis.

ED50 (5-HT1A receptor [1])	IC50 (5-HT1A receptor [2])	ED50 (5-HT1A receptor [3])	Structure (SMILES)
2.3 µmol/kg	12 nM	–	O=C1N(CCN2CCN(c3cccc4ccoc34)CC2)CCN1c1ccccc1 [Compound 2m, 1-[2-[4-Benzofuran-7-yl-1-piperazinyl]ethyl]-3-phenyl-2-imidazolidinone]
0.069 µmol/kg	2.6 nM	12 µmol/kg	O=S(=O)(CCCN1CCN(c2cccc3c2OCC3)CC1)C1CCCCC1 [Compound 1c, 1-(3-Cyclohexylsulfonyl-1-propyl)-4-(2,3-dihydrobenzofuran-7-yl)piperazine]
0.052 µmol/kg	1.1 nM	0.47 µmol/kg	O=S(=O)(CCCN1CCN(c2cccc3c2OCCO3)CC1)C12CC3CC(CC(C3)C1)C2 [Compound 1f, 1-[3-(1-Adamantyl)sulfonyl-1-propyl]-4-(1,4-benzodioxan-5-yl)piperazine]
0.099 µmol/kg	7.8 nM	9.5 µmol/kg	O=S(=O)(CCCN1CCN(c2cccc3c2OCCO3)CC1)c1ccccc1 [Compound 1b, 1-(1,4-Benzodioxan-5-yl)-4-(3-phenylsulfonyl-1-propyl)piperazine]
1.8 µmol/kg	11 nM	12 µmol/kg	O=c1n(CCN2CCN(c3cccc4c3OCCO4)CC2)ccn1-c1ccc(F)cc1 [Compound 5a, 1-[3-[4-(1,4-Benzodioxan-5-yl)-1-piperazinyl]-1-ethyl]-1,3-dihydro-3-(4-fluorophenyl)-2-imidazolone]
0.02 µmol/kg	1.8 nM	5.2 µmol/kg	[O-][S+](CCCN1CCN(c2cccc3c2OCCO3)CC1)C1CCCCC1 (stereo not shown) [Compound 3a, 1-(1,4-Benzodioxan-5-yl)-4-(3-cyclohexylthio-1-propyl)piperazine S-oxide]
40 µmol/kg	54 nM	28 µmol/kg	O=C1N(CCN2CCN(c3cccc4c3OCC4)CC2)CCN1C1CCCC1 [Compound 2f, 1-Cyclopentyl-3-[2-[4-(2,3-dihydrobenzofuran-7-yl)-1-piperazinyl]ethyl]-2-imidazolidinone]
1.1 µmol/kg	3.7 nM	4.2 µmol/kg	CC1(C)Cc2cccc(N3CCN(CCN4CCN(C5CCCC5)C4=O)CC3)c2O1 [Compound 2p, 1-Cyclopentyl-3-[2-[4-(2,3-dihydro-2,2-dimethylbenzofuran-7-yl)-1-piperazinyl]ethyl]-2-imidazolidinone]
–	3.9 nM	–	NC(=O)c1cc2c(N3CCN(CCN4CCN(C5CCCC5)C4=O)CC3)cccc2o1 [Compound 8a, 4-[4-[2-(3-Cyclopentyl-2-imidazolidinon-1-yl)ethyl]-1-piperazinyl]-2-benzofuranylcarboxamide]
–	11 nM	–	O=C1N(CCN2CCN(c3cccc4ccsc34)CC2)CCN1C1CCCC1 [Compound 2aa, 1-[2-[4-Benzo[b]thiophen-7-yl-1-piperazinyl]ethyl]-3-cyclopentyl-2-imidazolidinone]
–	2.8 nM	–	CC1(C)Cc2cccc(N3CCN(CCCCN4CCN(C56CC7CC(CC(C7)C5)C6)C4=O)CC3)c2O1 [Compound 2gg, 1-Adamantyl-3-[4-[4-(2,3-dihydro-2,2-dimethylbenzofuran-7-yl)-1-piperazinyl]-1-butyl]-2-imidazolidinone]
–	32 nM	–	O=C1N(CCN2CCN(c3cccc4occc34)CC2)CCN1C1CCCC1 [Compound 2s, 1-[2-(4-Benzofuran-4-yl-1-piperazinyl)ethyl]-3-cyclopentyl-2-imidazolidinone]
–	22 nM	–	CC1(C)Cc2c(cccc2N2CCN(CCCN3CCN(C4CCCCC4)C3=O)CC2)O1 [Compound 14d]
–	72 nM	–	CCN1CCN(CCN2CCN(c3cccc4c3OCCO4)CC2)C1=O [Compound 2l, 1-[2-[4-(1,4-Benzodioxan-5-yl)-1-piperazinyl]ethyl]-3ethyl-2-imidazolidinone]
–	83 nM	–	CCOC(=O)c1cc2c(N3CCN(CCN4CCN(C5CCCC5)C4=O)CC3)cccc2o1 [Compound 2cc, Ethyl [4-[4-[2-(3-cyclopentyl-2-imidazolidinon-1-yl)ethyl]-1-piperazinyl]-2-benzofuranyl] carboxylate]
–	22 nM	–	O=c1n(CCCCN2CCN(c3cccc4c3OCCO4)CC2)c2ccccc2n1-c1ccc(F)cc1 [Compound 13a, 1-[4-[4-(1,4-Benzodioxan-5-yl)-1-piperazinyl]-1-butyl]-3-(4-fluorophenyl)-2(3H)-benzimidazolone]
–	1.1 nM	–	CC1(C)Cc2cccc(N3CCN(CCCCN4CCN(c5cccc6ccccc56)C4=O)CC3)c2O1 [Compound 2jj, 1-[4-[4-(2,3-Dihydro-2,2-dimethylbenzofuran-7-yl)-1-piperazinyl]-1-butyl]-3-(1-naphtyl)-2-imidazolidinone]
–	20 nM	–	CC1(C)COc2c(N3CCN(CCCCCCN4CCN(C5CCCC5)C4=O)CC3)cc(Cl)cc21 [Compound 2pp]
–	44 nM	–	CC1(C)COc2c(N3CCN(CCN4CCN(C5CCCC5)C4=O)CC3)cc(Cl)cc21 [Compound 2oo]
0.13 µmol/kg	3.2 nM	–	CC1(C)Cc2cccc(N3CCN(CCN4CCN(c5ccccc5)C4=O)CC3)c2O1 [Compound 2n, 1-[2-[4-(2,3-Dihydro-2,2-dimethylbenzofuran-7-yl)-1-piperazinyl]ethyl]-3-phenyl-2-imidazolidinone]
–	15 nM	–	O=C1N(CCN2CCN(c3cccc4ccsc34)CC2)CCN1c1ccccc1 [Compound 2t, 1-[2-(4-Benzo[b]thiophen-7-yl-1-piperazinyl)ethyl]-3-phenyl-2-imidazolidinone]
0.036 µmol/kg	0.92 nM	0.78 µmol/kg	CC1(C)Cc2cccc(N3CCN(CCCCN4CCN(C5CCCCC5)C4=O)CC3)c2O1 [Compound 2bb, 1-Cyclohexyl-3-[4-[4-(2,3-dihydro-2,2-dimethylbenzofuran-7-yl)-1-piperazinyl]-1-butyl]-2-imidazolidinone]
–	12 nM	–	O=c1n(CCN2CCN(c3cccc4c3OCCO4)CC2)ccn1-c1ccccc1 [Compound 5b, 1-[3-[4-(1,4-Benzodioxan-5-yl)-1-piperazinyl]-ethyl]-1,3-dihydro-3-phenyl-2-imidazolone]
–	19 nM	–	O=C1N(CCCN2CCN(c3cccc4c3OCCO4)CC2)CCN1C1CCCCC1 [Compound 4c, 1-[3-[4-(1,4-Benzodioxan-5-yl)-1-piperazinyl]-1-propyl]-3-cyclohexyl-2-imidazolidinone]
–	5.4 nM	–	CC1(C)Cc2cccc(N3CCN(CCCCCCN4CCN(C5CCCC5)C4=O)CC3)c2O1 [Compound 2nn, 1-Cyclopentyl-3-[6-[4-(2,3-dihydro-2,2-dimethylbenzofuran-7-yl)-1-piperazinyl]-1-hexyl]-2-imidazolidinone]
